The test system of data set [1] is spores of Piricularia oryzae Cav. The format is cell-based.
Data set [2] relates to wheat plants.
The test system of data set [3] is stalk rust (Puccinia graminis f. tritici). The format is in vivo.
Data set [4] concerns white mice. Nature of the data set: Acute peroral toxicity for warm-blooded animals (LD50, LD90). To be noted: Table 14; female mice, peroral. The format is in vivo. How it is done:
(§1) Toxicity (LD50) was evaluated on males and females of white mice with peroral administration of the compounds. A portion of the test compound was mixed with the emulsifier Twin-20 and diluted with distilled water to the required working concentration. Administration of the preparation was effected by means of a metal probe and syringe directly into the stomach of test animals 2-3 hours after feeding. The tests were performed using several doses, 6 animals per each dose. Subsequent observation was effected for two weeks.

Assay in data set [5]: as above
To be noted: mouse, in vivo, po. It is filed as in vivo, white mice. The protocol:
as §1

Data set [6] has as its system apple scab (Venturia inaequalis). Particulars: in vivo.
The subject of data set [7] is rust diseases of cereal crops. Nature of the data set: Activity against rust diseases of cereal crops (general statements). It is filed as in vivo.
The subject of data set [8] is stalk rust of wheat (Puccinia graminis). The format is in vivo. Particulars: in vivo.
Data set [9] relates to potato phytophthora (Phytophthora infestans). It is filed as in vivo. Particulars: 1% aqueous emulsion; 18 °C, 14 days.
Data set [10] deals with rust diseases of cereal crops. Particulars: prior art; cited from earlier work.
For data set [11], the system named is plants. To be noted: prior art; cited from earlier work.
Data set [12] concerns stalk rust (Puccinia graminis f. tritici). The format is in vivo. To be noted: Table 8, 3.0 kg/ha, 3 sprayings.
Data set [13] relates to yellow rust of wheat. To be noted: in vivo.
Data set [14] has as its system yellow rust (P. striiformis). Briefly: Efficiency of Aphos for USVS against yellow rust of wheat under field conditions (Table 8). To be noted: Taskent region, spring wheat Kzyl Shark, 3.0 kg/ha, 7.5 l/ha (Zineb 600), 3 sprayings. It is filed as in vivo.
For data set [15] the following is noted: prior art; cited from earlier work.
[16] abbreviates: seeds after storage of grains for one year.
The mark [17] stands for this setting: Krasnodar region, winter wheat Odesskaja-51, 7.5 l/ha (Zineb 3.2 kg/ha, 600 l/ha).
[18] abbreviates: Moscow region, spring wheat Krasnozernaja, 7.5 l/ha (Zineb 600).

“And” between values parts separate entries of the source, which are not always exact repeats. Equal values may be shown once. Read-outs that look alike come from different tables or passages of the source.

In the case of `CC(=O)OC(C(Cl)(Cl)Cl)P(=O)(Oc1ccccc1)Oc1ccccc1` (centres unmarked) [I, O,O-diphenyl-1-acetoxy-2,2,2-trichloroethylphosphonate], in data set [1], the “efficiency of suppressing spores relative to kitacin” value was “about 40 times” and the “superiority over kitacin in respect of activity” value was “about 50 times”. In addition, in [1] (24 hours), the “Concentration causing 50% death of spores” value stood at 0.69 mg/L. In addition, in data set [2] (even at 8-times the increase of the dose), the “effect on yield of wheat grain” value is on record as “does not lower the yield of wheat grain”. Besides, in data set [2] (setting [16]), the germination power is on record as 99.5% and the sprouting energy stood at 98.5%. In addition, in [3] (in vivo), the “Percentage of plants injured with rust, 1-st evaluation” value was 0.5%; the “Percentage of plants injured with rust, 2-nd evaluation” value is recorded as 7.0%; the “Weight of 1,000 grains” value was 18.7 g; the Yield stood at 17.40 c/ha. Also, the “LD90 with trusty limits” value in data set [4] is given as 8,200 mg/kg. Also, the LD50 at 336 h in [5] (Table 2, peroral, read-out: LD50 for white mice) was determined as 3500 mg/kg. Moreover, the LD50 at 336 h in data set [5] (Table 14, female mice, peroral, read-out: LD50 with trusty limits) was found to be 3500 mg/kg. For the same compound, in [5] (white mice, peroral administration, read-out: acute toxicity), the LD50 at 336 h is ~3500 mg/kg. In addition, the “protection of the apple tree from scab” value in data set [6] is “complete protection”. Besides, the “period of fungicidal effect as compared to zineb” value in data set [7] (compared to zineb) is given as “longer period of a fungicidal effect as compared to zineb”. Further, in data set [7] (even at a high level of infection), the “protection of cereal crops from rust” value is listed as “substantially completely protect cereal crops from rust”. Also, the “increase of the grain yield” value in data set [7] (high-volume spraying and USVS at 5 to 8 l/ha) is reported as “up to 24 c/ha”. Moreover, in data set [7] (including zineb and hydroxycarboxine), the “efficiency compared with prior art anti-rust compositions” value is “superior over the prior art anti-rust fungicidal compositions including zineb and hydroxycarboxine”. Further, in data set [8], the “Percentage of injury lowered” value is 98-100% and 70-97%.
On to `CN(C)C(=S)SSC(=S)N(C)C` [TMTD, tetramethylthiuramdisulphide], for which the “sporulation on treated tubers” value in [9] is listed as “individual conidia were observed”.
In the case of `Nc1ccc(S(=O)(=O)O)cc1` [anilate], the “activity against rust diseases” value in [10] is given as “low-efficiency”. In addition, the phytotoxicity result in [11] was “phytotoxic”.
Regarding zinc ethylenebisdithiocarbamate [Zineb], the “activity against rust diseases” value in [10] was “high activity”. Further, in [3] (3 kg/ha a.i., three sprayings), the “Weight of 1,000 grains” value stood at 14.0 g and the Yield was 8.55 c/ha. Also, the “Percentage of plants injured with rust, 1-st evaluation” value in data set [3] (3 kg/ha a.i., 9 days after the first spraying, Moscow region, spring wheat Krasnozernaja) was 0.5%. Also, the “Percentage of plants injured with rust, 2-nd evaluation” value in data set [3] (3 kg/ha a.i., two weeks after the third spraying, Moscow region, spring wheat Krasnozernaja) came out at 12.0%. Also, in [12] (setting [17]), the Grain yield worked out at 34.5 c/ha, the “Percentage of injured plants” value worked out at 16.0% and the “Weight of 1,000 grains” value stood at 35.6 g. In [12] (setting [18]), the Grain yield amounted to 8.0 c/ha, the “Percentage of injured plants” value is 23.3% and the “Weight of 1,000 grains” value was 12.6 g. Besides, the “reduced the degree of injury as compared to the control” value in data set [6] was 97%. Further, the “efficiency under different agroclimatic conditions including frequent heavy rains” value in data set [7] (frequent heavy rains) was “low-effective”. In addition, in [13], the “Percentage of injured plants, 17.05” value was 4% and 6% and 5%; the “Weight of 1,000 grains” value is 35.4 g and 31.0 g and 34.8 g; the Yield is 411 and 351 and 412; the “efficiency with longer intervals between sprayings” value was “substantially reduced to zero”. Moreover, in data set [14], the Grain yield is recorded as 20.8 c/ha, the “Percentage of injured plants” value is 14.4% and the “Weight of 1,000 grains” value worked out at 31.6 g. Also, the stability upon storage result in [15] was “not stable upon storage”.

The values are drawn from patent publication US4212862A, “O,O-Diaryl-1-acyloxy-2,2,2-trichloroethylphosphonates and fungicides based thereon” (priority 1978, dated 1980).
